The results in this text go back to publication PMC9855432, “Novel Set of Diarylmethanes to Target Colorectal Cancer: Synthesis, In Vitro and In Silico Studies” (Biomolecules, 2022).

The subject of data set [1] is human CRC HCT116 cells. Kind of data set: MTT cell viability / IC50 on HCT116 cells. The note with it: for IC50: MTT assay, 1 to 50 µM, mean ± SEM of at least three experiments; for viability at 50 µM: HCT-116, MTT screening. Format: cell-based. How it is done: (§1) Cells were grown in DMEM medium for HT-29 cells and RPMI 1640 medium for HCT116 cells, supplemented with 10% FBS, 1% L-glutamine and 100 U/mL penicillin and 100 μg/mL streptomycin. Cultures were maintained in a humidified atmosphere containing 5% CO2 at 37 °C. Stock solutions of each compound were used at 10^−2 M in DMSO and then diluted in culture medium to obtain the appropriate final concentrations. […] L929 cell line is a non-cancer cell line derived from L-strain (L cells) and has been grown in the Peptinov laboratory for years. L929 cells are murine adherent fibroblasts from subcutaneous connective tissue (areolar and adipose tissues). Cells were grown in DMEM medium supplemented with 10% FBS, 1% L-glutamine and 100 U/mL penicillin and 100 µg/mL streptomycin and maintained in a humidified incubator at 37 °C, 5% CO2. When confluence is at 80%, cells are trypsinyzed for 3 min and diluted in fresh medium. Each batch of cells is kept for 15 passages before being discarded and a new batch thawed.
(§2) All compounds were tested on the metabolic activity of the cells using the MTT colorimetric assay. Briefly, cells were seeded in 96-well microplates at 8 × 10^3 cells/well for human CRC HT-29 cells and 5 × 10^3 cells/well for human CRC HCT116 cells and grown for 24 h in appropriate culture medium prior to exposure or not to compounds (6–27) with concentration ranges from 1 to 50 µM. After 48 h of treatment, MTT (5 g/L in Phosphate-buffered saline (PBS)) was added and incubated for another 3 h. The MTT was then removed from the wells and 100 µL/well of DMSO were added to dissolve formazan. The optical density was detected with a microplate reader (Thermoscientific, Multiskan FC) at 550 nm and cell viability was expressed as a percentage of each treatment condition compared to control cells. IC50 values were calculated for all compounds from the dose–response curve.
For orientation: Formazan colour is commonly taken as a measure of viable cells.

Data set [2] has as its system human CRC HT-29 cells. Kind of data set: MTT cell viability / IC50 on HT-29 cells. Type of data set: cell-based. The note with it: for IC50: MTT assay, 1 to 50 µM, mean ± SEM of at least three experiments; for viability at 50 µM: HT-29. The protocol:
as §1, §2

The subject of data set [3] is PARP. In words: Western blot of cleaved PARP in HT-29 cells. Type of data set: cell-based, human. The protocol: (§3) Human CRC HT-29 and HCT116 cells were treated or not with the determined IC50 values of compounds (12a, 10a, 10b) for indicated times (6, 12, 24 and 48h) and then harvested with trypsin. For total protein extraction, collected samples of each condition were washed with PBS. Then, the total cell pool was centrifuged at 200× g for 5 min at 4 °C and homogenized in RIPA lysis buffer (50 mM HEPES, pH 7.5, 150 mM NaCl, 1% sodium deoxycholate, 1% NP-40, 0.1% Sodium Dodecyl Sulfate (SDS), […] of aprotinin) containing protease inhibitors according to the manufacturer’s instructions as previously described. Proteins (60 µg) were separated on 12.5% SDS-PAGE gels and transferred to polyvinylidene difluoride (PVDF) membranes. Membranes were probed with respective human antibodies against caspase-3, cleaved caspase-3, PARP and Akt, ERK, p38 MAP Kinases and its phosphorylated forms according to the manufacturer’s instructions. After incubation with appropriate secondary antibodies, blots were developed using the «Immobilon Western » substrate following the manufacturer’s protocol and G:BOX system (Syngene, Ozyme). Membranes were then reblotted with human anti-β-actin used as a loading control.
Cells were treated or not for 24 and 48 h, with IC50 values of compounds 10a, 10b and 12a, for human CRC HT-29 cells and compounds 10a and 12a for human CRC HCT116 cells. Total lysates were collected, and expression of apoptosis-related proteins was determined by Western blot analysis.
(Immunoblotting shows a protein as a band on a membrane.)

The subject of data set [4] is human CRC HT-29 cells. Kind of data set: DNA fragmentation, Cell Death Detection ELISA, HT-29. Type of data set: cell-based. The note with it: treated at IC50, n-fold compared to control. The protocol:
(§4) Human CRC HT-29 and HCT116 cells were treated or not with the determined IC50 values of compounds (12a, 10a, 10b) for 24 and 48 h and then harvested with trypsin. Histone release from the nucleus during apoptosis was analyzed using the Cell Death Detection ELISA^PLUS as previously described. Cytosol extracts from 10^5 cells of each condition were obtained and DNA fragmentation was measured according to the manufacturer’s protocol. Results were reported as n-fold compared to control cells.
For orientation: ELISA stands for enzyme-linked immunosorbent assay.

For data set [5], the system named is caspase-3. Kind of data set: Western blot of cleaved caspase-3 in HCT116 cells. Type of data set: cell-based, human. The note with it: HCT116, treated at IC50, 24 h (enhanced after 48 h). The protocol: as §3
(§5) Cells were treated or not for 24 and 48 h, with IC50 values of compounds 10a, 10b and 12a, for human CRC HT-29 cells and compounds 10a and 12a for human CRC HCT116 cells. […]

For data set [6], the system named is PARP. Kind of data set: Western blot of cleaved PARP in HCT116 cells. Type of data set: cell-based, human. The note with it: HCT116, treated at IC50, 24 and 48 h. How it is done:
as §3, §5

A further data set relates to P-p38. Kind of data set: Western blot of P-p38 in HCT116 cells. Type of data set: cell-based, human. The note with it: HCT116, treated at IC50, 6 and 12 h. How it is done:
as §3, with “Membranes were then reblotted with human anti-β-actin used as a loading control.” left out
(§6) P-Akt, Akt, P-ERK, ERK, P-p38, p-38 sourced from human CRC HCT116 cells line were investigated. […] Total lysates were collected and expression of Akt, ERK and p38 MAPK proteins and their phosphorylated forms were determined by Western blot analysis.

In a further data set the test system is P-ERK. In words: Western blot of P-ERK in HCT116 cells. The note with it: HCT116, treated at IC50, 6 and 12 h. Format: cell-based, human. How it is done:
as §3, with “Membranes were then reblotted with human anti-β-actin used as a loading control.” left out
as §6

The test system of data set [7] is caspase-3. Kind of data set: Western blot of cleaved caspase-3 in HT-29 cells. The note with it: HT-29, treated at IC50, within 48 h. Type of data set: cell-based, human. How it is done:
as §3, §5

The next data set concerns P-Akt. In words: Western blot of P-Akt in HCT116 cells. Format: cell-based, human. The note with it: HCT116, treated at IC50, 6 and 12 h. The protocol:
as §3, with “Membranes were then reblotted with human anti-β-actin used as a loading control.” left out
as §6

Data set [8] concerns human CRC HCT116 cells. Kind of data set: DNA fragmentation, Cell Death Detection ELISA, HCT116. Format: cell-based. The note with it: treated at IC50, n-fold compared to control. The protocol: as §4
Where [9] appears, read: Homo sapiens, 50 µM, 48 h, MTT screening.

Take `COc1ccc(C(=Cc2ccc(C(C)(C)C)cc2)c2ccccn2)cc1` [Compound 10b, 2-(2-(4-(tert-butyl)phenyl)-1-(4-methoxyphenyl)vinyl)pyridine]: the IC50 in the data set with human CRC HCT116 cells [1] (48 h) was > 50 µM; with human CRC HT-29 cells [2] (48 h), 25.2 ± 1.28 µM. Besides, in the data set with human CRC HT-29 cells [2] (50 µM, 48 h, MTT screening), the “Cell viability (%) HT-29” value was < 50%. In addition, the “cleaved PARP expression” value is listed as “never been expressed” in the data set with PARP [3] (HT-29, treated at IC50, 24 h) and “never been expressed” with PARP [3] (HT-29, treated at IC50, 48 h). The results for the “HT-29 DNA Fragmentation (Fold)” value in the data set with human CRC HT-29 cells [4] (24 h) and in the data set with human CRC HT-29 cells [4] (48 h) were 1.24 Fold and 0.84 Fold, respectively.

For the molecule `COc1ccc(C(=Cc2ccc(C(F)(F)F)cc2)c2ccccn2)cc1` [Compound 12a, 2-(1-(4-methoxyphenyl)-2-(4-(trifluoromethyl)phenyl)vinyl)pyridine], the IC50 in the data set on human CRC HCT116 cells [1] (Homo sapiens, HCT-116, 48 h) is < 35 µM; in the data set with human CRC HCT116 cells [1] (48 h), 31.4 ± 1.74 µM; with human CRC HT-29 cells [2] (48 h) it was 23 ± 1.27 µM. In addition, the viability at 50 µM was < 50% with human CRC HCT116 cells [1] (Homo sapiens, 48 h) and < 50% with human CRC HT-29 cells [2] (setting [9]). Besides, the figures for the “cleaved caspase-3 expression” value in the data set on caspase-3 [5] and with caspase-3 [7] were “cleavage of caspase-3” and “high expression of the cleaved form of caspase-3”, respectively. Moreover, the “cleaved PARP expression” value in the data set on PARP [6] is “significant increase of cleaved PARP”; with PARP [3] (HT-29, treated at IC50, 24 h), “slightly enhanced”; with PARP [3] (HT-29, treated at IC50, 48 h), “overexpressed”. In addition, the p38 activation result with P-p38 is on record as “no p38 activation was observed”. For the same molecule, the ERK phosphorylation result in the data set on P-ERK was “drastically decreased”. The P-Akt expression result in the data set with P-Akt is “downregulated”. Besides, the “HCT116 DNA Fragmentation (Fold)” value with human CRC HCT116 cells [8] (24 h) stood at 1.46 Fold; in the data set on human CRC HCT116 cells [8] (48 h) it was 6.97 Fold. In addition, the “HT-29 DNA Fragmentation (Fold)” value in the data set with human CRC HT-29 cells [4] (24 h) is listed as 2.90 Fold; in the data set on human CRC HT-29 cells [4] (48 h), 3.25 Fold.

Regarding `COc1ccc(C(=Cc2ccc(C(C)(C)C)cc2)c2ccccn2)cc1` [Compound 10a, 2-(2-(4-(tert-butyl)phenyl)-1-(4-methoxyphenyl)vinyl)pyridine], the IC50 in the data set on human CRC HCT116 cells [1] (Homo sapiens, HCT-116, 48 h) is < 35 µM; in the data set on human CRC HCT116 cells [1] (48 h), 33.6 ± 0.71 µM; with human CRC HT-29 cells [2] (Homo sapiens, HT-29, 48 h), < 30 µM; with human CRC HT-29 cells [2] (48 h), 25.7 ± 1.21 µM. Further, the viability at 50 µM was < 50% with human CRC HCT116 cells [1] (Homo sapiens, 48 h) and < 50% in the data set with human CRC HT-29 cells [2] (setting [9]). Besides, the p38 activation result in the data set on P-p38 is given as “no p38 activation was observed”. Also, the ERK phosphorylation result in the data set on P-ERK is reported as “drastically decreased”. Also, the P-Akt expression entry with P-Akt was “inhibition is also observed”. Further, the “cleaved PARP expression” value in the data set with PARP [3] (HT-29, treated at IC50, 24 h) was “never been expressed”; in the data set with PARP [3] (HT-29, treated at IC50, 48 h), “never been expressed”. Further, the “HCT116 DNA Fragmentation (Fold)” value in the data set on human CRC HCT116 cells [8] (24 h) came to 0.83 Fold; in the data set with human CRC HCT116 cells [8] (48 h) it was 1.89 Fold. Besides, the “HT-29 DNA Fragmentation (Fold)” value is reported as 1.12 Fold with human CRC HT-29 cells [4] (24 h) and 0.83 Fold with human CRC HT-29 cells [4] (48 h).

As a reminder, the IC50 is the concentration at which inhibition is half-maximal. The viability is the share of living cells, or the viability signal relative to a control.
